Assay [1] has as its target T1, human adrenergic beta2 receptor (Homo sapiens, UniProt P07550).
T1 construct: purchased Perkin Elmer; host or cells: Sf9 cells (overexpressed; membranes)
The experiment in a line: Human adrenergic β2 receptor binding assay (3H-CGP12177, Sf9 cell membranes). As to conditions: 0.6 nM 3H-CGP12177, Sf9 membranes 5 μg/well, 60 min room temperature; read-out: Binding, IC50, nM β2. The procedure:
Typically said beta2-adrenergic binding assay comprises: • a) providing a membrane suspension comprising Sf9 cells in an assay buffer • b) incubating with 3H-CGP12177 in plates previously treated with assay buffer containing a coating agent • c) measuring binding of test compound in the presence of propanolol • d) maintaining incubation • e) terminating the binding reactions • f) determining the affinity of the test compound for the receptor by repeating steps a) to e) using multiple different test compound concentrations. • g) calculating an IC50 using the four parameters-log equation.
Test 1: Human Adrenergic β1 and β2 Receptor Binding Assays
The study of binding to human adrenergic beta1 and beta2 receptors was performed using commercial membranes prepared from Sf9 cells where they are overexpressed (Perkin Elmer). The membrane suspensions (16 μg/well for beta1 and 5 μg/well for beta2) in assay buffer (75 mM Tris/HCl with 12.5 mM MgCl2 and 2 mM EDTA pH=7.4) were incubated with 0.14 or 0.6 nM of 3H-CGP12177 (Amersham) for beta 1 and beta 2 receptors respectively in a final volume of 250 μl, in GFC Multiscreen 96 well plates (Millipore) previously treated with assay buffer containing 0.3% PEI (Sigma). Non specific binding was measured in the presence of 1 μM propanolol. Incubation was maintained for 60 minutes at room temperature and with gentle shaking. The binding reactions were terminated by filtration and washing with 2.5 volumes of Tris/HCl 50 mM pH=7.4. The affinity of each test compound to the receptor was determined by using ten different concentrations ran in duplicate. IC50s were calculated using Activity Base software from IDBS and the four parameters-log equation.

Assay [2] concerns the target T2, human muscarinic M3 receptor (Homo sapiens, UniProt P20309).
T2 construct: purchased Perkin Elmer; host or cells: CHO-K1 cells (membranes)
The experiment in a line: Human muscarinic M3 receptor binding assay ([3H]-NMS, CHO-K1 cell membranes). The note with it: 1 nM [3H]-NMS, CHO-K1 membranes 4.9 μg/well, two hours incubation; read-out: Binding, IC50, nM M3. On the procedure: Test 2: Human Muscarinic M1, M2, M3, M4 and M5 Receptors Binding Assays
The study of binding to human muscarinic M1, M2, M3, M4 and M5 receptors was performed using commercial membranes (Perkin Elmer) prepared from CHO-K1 cells. Radioligand binding experiments were conducted in 96 polypropylene well plates in a total volume of 200 μl. All reagents were dissolved in assay binding buffer (PBS with calcium and magnesium, SIGMA), except compounds that were dissolved in DMSO 100%. Non-specific binding (NSB) was measured in the presence of 1 μM atropine. [3H]-NMS was used as the radioligand at a concentration of 1 nM for M2, M3 and M5 and 0.3 nM for M1 and M4. [3H]-NMS and antagonists were incubated with membranes that express human muscarinic receptors M1, M2, M3, M4 and M5 at concentrations of 8.1, 10, 4.9, 4.5 and 4.9 μg/well, respectively.
After an incubation period of two hours with gentle shaking, 150 μl of the reaction mix were transferred to 96 GF/C filter plates (Millipore), previously treated with wash buffer (Tris 50 mM; NaCl 100 mM; pH:7.4), containing 0.05% PEI (Sigma) during one hour. Bound and free [3H]-NMS were separated by rapid vacuum filtration in a manifold from Millipore and washed four times with ice cold wash buffer. After drying 30 min, 30 μl of OPTIPHASE Supermix were added to each well and radioactivity quantified using a Microbeta microplate scintillation counter.
The affinity of each test compound to the receptors was determined by using ten different concentrations ran in duplicate. IC50s were calculated using Activity Base software from IDBS and the four parameters-log equation.

Our source for the IC50 values is US9518050B2, “Cyclohexyl and quinuclidinyl carbamate derivatives having β2 adrenergic agonist and M3 muscarinic antagonist activity” (priority 2012, dated 2016).

The term IC50 denotes the concentration that inhibits the measured activity by half.

T2 sequence (P20309 whole entry): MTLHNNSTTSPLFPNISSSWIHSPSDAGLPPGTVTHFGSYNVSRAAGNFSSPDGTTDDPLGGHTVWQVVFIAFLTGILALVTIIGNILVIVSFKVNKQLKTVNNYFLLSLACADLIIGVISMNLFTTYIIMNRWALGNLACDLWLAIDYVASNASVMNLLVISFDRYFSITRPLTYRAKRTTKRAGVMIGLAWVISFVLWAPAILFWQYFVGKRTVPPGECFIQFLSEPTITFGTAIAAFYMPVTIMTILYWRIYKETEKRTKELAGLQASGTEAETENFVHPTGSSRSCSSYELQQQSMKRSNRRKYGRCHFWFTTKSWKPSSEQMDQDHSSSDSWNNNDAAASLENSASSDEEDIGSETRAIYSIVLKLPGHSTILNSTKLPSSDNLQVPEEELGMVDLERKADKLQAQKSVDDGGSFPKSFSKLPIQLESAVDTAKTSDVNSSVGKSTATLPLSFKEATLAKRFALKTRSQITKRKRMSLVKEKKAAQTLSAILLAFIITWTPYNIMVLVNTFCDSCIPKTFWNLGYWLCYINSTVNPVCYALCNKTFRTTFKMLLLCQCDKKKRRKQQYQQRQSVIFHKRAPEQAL

Consider “(3R)-1-azabicyclo[2.2.2]oct-3-yl(4-{4-[3-({[(2R)-2-hydroxy-2-(8-hydroxy-2-oxo-1,2-dihydroquinolin-5-yl)ethyl]amino}methyl)phenoxy]butyl}biphenyl-2-yl)carbamate dihydrofluoride [Example 9]”, for which the IC50 in assay [1] turned out to be 47 nM; in assay [2] it was 0.68 nM.

As to “1-azabicyclo[2.2.2]oct-4-yl[4-(4-{[2-chloro-4-({[(2R)-2-hydroxy-2-(8-hydroxy-2-oxo-1,2-dihydroquinolin-5-yl)ethyl]amino}methyl)-5-methoxybenzoyl]amino}butyl)biphenyl-2-yl]carbamate dihydrofluoride [Example 67]”, the IC50 stood at 8.2 nM in assay [1] and 0.41 nM in assay [2].

As for “trans-4-aminocyclohexyl(5-{4-[6-({[(2R)-2-hydroxy-2-(8-hydroxy-2-oxo-1,2-dihydroquinolin-5-yl)ethyl]amino}methyl)-2-oxo-1,3-benzoxazol-3(2H)-yl]butyl}biphenyl-2-yl)carbamate dihydrochloride [Example 34]”, the IC50 in assay [1] was 14 nM; in assay [2] it was 0.84 nM.

On to “(3R)-1-azabicyclo[2.2.2]oct-3-yl(4-{4-[6-({[(2R)-2-hydroxy-2-(5-hydroxy-3-oxo-3,4-dihydro-2H-1,4-benzoxazin-8-yl)ethyl]amino}methyl)-2-oxo-1,3-benzoxazol-3(2H)-yl]butyl}biphenyl-2-yl)carbamate dihydrofluoride [Example 25]”, for which the values for the IC50 in assay [1] and in assay [2] were 1.5 nM and 0.14 nM, respectively.

Take `N[C@H]1CC[C@H](OC(=O)Nc2cc(CCCC(=O)N[C@H]3CC[C@H](CNC[C@H](O)c4ccc(O)c5[nH]c(=O)ccc45)CC3)ccc2-c2ccccc2)CC1` (relative stereo) [Example 58, trans-4-aminocyclohexyl[4-(4-{[trans-4-({[(2R)-2-hydroxy-2-(8-hydroxy-2-oxo-1,2-dihydroquinolin-5-yl)ethyl]amino}methyl)cyclohexyl]amino}-4-oxobutyl)biphenyl-2-yl]carbamate]: the IC50 was found to be 8.4 nM in assay [1] and 1.4 nM in assay [2].

In the case of “(3R)-1-azabicyclo[2.2.2]oct-3-yl(5-{4-[4-(2-{[(2R)-2-hydroxy-2-(8-hydroxy-2-oxo-1,2-dihydroquinolin-5-yl)ethyl]amino}ethyl)phenoxy]butyl}biphenyl-2-yl)carbamate dihydrofluoride [Example 21]”, the IC50 in assay [1] was 1.3 nM; in assay [2] it was 1.2 nM.

For “1-azabicyclo[2.2.2]oct-4-yl[4-(4-{[6-({[(2R)-2-hydroxy-2-(8-hydroxy-2-oxo-1,2-dihydroquinolin-5-yl)ethyl]amino}methyl)pyridin-3-yl]amino}-4-oxobutyl) biphenyl-2-yl]carbamate dihydrofluoride [Example 68]”, the IC50 in assay [1] stood at 23 nM; in assay [2], 1.7 nM.

As for “trans-4-[methyl(3-phenylpropyl)amino]cyclohexyl[4-(4-{[4-({[(2R)-2-hydroxy-2-(8-hydroxy-2-oxo-1,2-dihydroquinolin-5-yl)ethyl]amino}methyl)phenyl]amino}-4-oxobutyl)biphenyl-2-yl]carbamate dihydrofluoride [Example 40]”, the IC50 in assay [1] turned out to be 2 nM; in assay [2] it was 0.78 nM.

Take “trans-4-aminocyclohexyl(4-{3-[{[2-chloro-4-({[(2R)-2-hydroxy-2-(8-hydroxy-2-oxo-1,2-dihydroquinolin-5-yl)ethyl]amino}methyl)-5-methoxyphenoxy]acetyl}(methyl)-amino]propyl}biphenyl-2-yl)carbamate dihydrochloride [Example 47]”: the IC50 in assay [1] worked out at 8.5 nM; in assay [2], 0.65 nM.

For “(3R)-1-azabicyclo[2.2.2]oct-3-yl(4-{4-[5-({[(2R)-2-hydroxy-2-(8-hydroxy-2-oxo-1,2-dihydroquinolin-5-yl)ethyl]amino}methyl)-1H-indol-1-yl]butyl}biphenyl-2-yl)carbamate dihydrofluoride [Example 15]”, the IC50 was 15 nM in assay [1] and 0.32 nM in assay [2].
